In patent US11548871B2, “Triazole carbamate pyridyl sulfonamides as LPA receptor antagonists and uses thereof” (Gilead Sciences, Inc., priority 2019, dated 2023):

Each molecule was assayed against human LPAR1 (Homo sapiens, UniProt Q92633) (assay: LPAR1 intracellular calcium mobilization assay (antagonist mode)).
Sequence of human LPAR1 (Q92633 whole entry): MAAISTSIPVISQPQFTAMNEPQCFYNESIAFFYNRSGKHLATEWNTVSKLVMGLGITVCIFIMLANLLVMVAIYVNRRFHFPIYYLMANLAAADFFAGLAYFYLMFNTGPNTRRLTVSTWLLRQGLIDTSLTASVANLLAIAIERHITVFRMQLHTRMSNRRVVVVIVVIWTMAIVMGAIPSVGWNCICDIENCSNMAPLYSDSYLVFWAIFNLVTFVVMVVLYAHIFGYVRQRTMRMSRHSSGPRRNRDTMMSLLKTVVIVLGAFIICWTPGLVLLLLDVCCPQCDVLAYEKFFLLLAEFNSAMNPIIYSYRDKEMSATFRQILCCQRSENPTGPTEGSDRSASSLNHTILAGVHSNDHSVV
Method: In vitro LPAR1 activity was measured in an intracellular calcium mobilization assay.
Prior to testing cell media were aspirated from the cells and replaced with 20 μL Calcium Dye Loading Buffer (DiscoverX Calcium NoWash^PLUS Assay Kit cat #90-0091) and 2.5 mM Probenecid (Sigma Aldrich cat #P8761, prepared fresh) in HBSS/20 mM Hepes for 60 min at 37° C.
For agonist dose curves, cells were removed from the incubator after dye loading and 10 μL HBSS/20 mM Hepes including 3× vehicle was added. Cells were incubated for 30 min at room temperature in the dark to equilibrate plate temperatures. An intermediate LPA dilution series was prepared in assay buffer to generate 4× stock. Calcium mobilization was monitored on a FLIPR Tetra (MDS, San Jose, Calif.) for 2 min and 10 μL 4×LPA in HBSS/20 mM Hepes was added to the cells 5 s into the assay.
An intermediate antagonist dilution series was prepared as 3× samples in assay buffer. After dye loading, cells were removed from the incubator and 10 μL 3× antagonist was added. Cells were incubated for 30 min at room temperature in the dark to equilibrate plate temperatures. The final vehicle (DMSO) concentration was 1%. Compound antagonist activities was measured on a FLIPR Tetra. Calcium mobilization was monitored for 2 min and 10 μL EC80 agonist in HBSS/20 mM Hepes was added to the cells 5 s into the assay. Compound activity was analyzed using CBIS data analysis suite (ChemInnovation Software, San Diego, Calif.).

SMILES	EC50 [nM]
Cc1ccncc1C(C)OC(=O)Nc1c(-c2ccc(NS(C)(=O)=O)c(C)n2)nnn1C (centres unmarked) [Compound 82, 1-(4-methylpyridin-3-yl)ethyl (1-methyl-4-(6-methyl-5-(methylsulfonamido)pyridin-2-yl)-1H-1,2,3-triazol-5-yl)carbamate]	2300
Cc1nc(-c2nnn(CC#N)c2NC(=O)O[C@H](C)c2ccccc2Cl)ccc1NS(C)(=O)=O [Compound 96, (R)-1-(2-chlorophenyl)ethyl(1-(cyanomethyl)-4-(6-methyl-5-(methylsulfonamido)pyridin-2-yl)-1H-1,2,3-triazol-5-yl)carbamate]	18.1
Cc1nc(-c2nnn(C)c2NC(=O)OC(C)c2conc2C)ccc1NS(C)(=O)=O (centres unmarked) [Compound 136, 1-(3-methylisoxazol-4-yl)ethyl (1-methyl-4-(6-methyl-5-(methylsulfonamido)pyridin-2-yl)-1H-1,2,3-triazol-5-yl)carbamate]	3770
CCS(=O)(=O)Nc1ccc(-c2nnn(C)c2NC(=O)O[C@H](C)c2cccc(F)c2)nc1C [Compound 101, (R)-1-(3-fluorophenyl) ethyl(4-(5-(ethyl-sulfonamido)-6-methyl-pyridin-2-yl)-1-methyl-1H-1,2,3-triazol-5-yl)carbamate]	261
Cc1nc(-c2nnn(C)c2NC(=O)OC(C)c2ncccc2Cl)ccc1NS(C)(=O)=O (centres unmarked) [Compound 131, 1-(3-chloropyridin-2-yl)ethyl (1-methyl-4-(6-methyl-5-(methylsulfonamido)pyridin-2-yl)-1H-1,2,3-triazol-5-yl)carbamate]	675
Cc1nc(-c2nnn(C)c2NC(=O)OC2c3ccccc3CC2F)ccc1NS(C)(=O)=O (centres unmarked) [Compound 73, 2-fluoro-2,3-dihydro-1H-inden-1-yl (1-methyl-4-(6-methyl-5-(methylsulfonamido)pyridin-2-yl)-1H-1,2,3-triazol-5-yl)carbamate]	3220
COc1ncccc1[C@@H](C)OC(=O)Nc1c(-c2ccc(NS(C)(=O)=O)c(C)n2)nnn1C [Compound 122, (R)-1-(2-methoxypyridin-3-yl)ethyl (1-methyl-4-(6-methyl-5-(methylsulfonamido)pyridin-2-yl)-1H-1,2,3-triazol-5-yl)carbamate]	920
Cc1nc(-c2nnn(C)c2NC(=O)OCc2ccccc2Cl)ccc1NS(C)(=O)=O [Compound 40, 2-chlorobenzyl (1-methyl-4-(6-methyl-5-(methylsulfonamido)pyridin-2-yl)-1H-1,2,3-triazol-5-yl)carbamate]	87
Cn1nnc(-c2ccc(NS(C)(=O)=O)cn2)c1NC(=O)O[C@H](CF)c1cccc(F)c1 [Compound 22, (S)-2-fluoro-1-(3-fluorophenyl)ethyl (1-methyl-4-(5-(methylsulfonamido)pyridin-2-yl)-1H-1,2,3-triazol-5-yl)carbamate]	8.7
Cc1nc(-c2nnn(C)c2NC(=O)OCCCC(C)(C)C)ccc1NS(C)(=O)=O [Compound 30, 4,4-dimethylpentyl (1-methyl-4-(6-methyl-5-(methylsulfonamido)pyridin-2-yl)-1H-1,2,3-triazol-5-yl)carbamate]	667
CCc1ncccc1[C@@H](C)OC(=O)Nc1c(-c2ccc(NS(C)(=O)=O)c(C)n2)nnn1C [Compound 151, (R)-1-(2-ethylpyridin-3-yl)ethyl (1-methyl-4-(6-methyl-5-(methylsulfonamido)pyridin-2-yl)-1H-1,2,3-triazol-5-yl)carbamate]	588
Cc1nc(-c2nnn(C)c2NC(=O)O[C@H](C)c2cccc(Cl)c2F)ccc1NS(C)(=O)=O [Compound 24, (R)-1-(3-chloro-2-fluorophenyl)ethyl (1-methyl-4-(6-methyl-5-(methylsulfonamido)pyridin-2-yl)-1H-1,2,3-triazol-5-yl)carbamate]	276
Cc1nc(-c2nnn(C)c2NC(=O)OCCC(C)C)ccc1NS(C)(=O)=O [Compound 33, isopentyl (1-methyl-4-(6-methyl-5-(methylsulfonamido)pyridin-2-yl)-1H-1,2,3-triazol-5-yl)carbamate]	3680
COc1nc(-c2nnn(C)c2NC(=O)O[C@H](C)c2ccccc2)ccc1NS(C)(=O)=O [Compound 1, (R)-1-phenylethyl (4-(6-methoxy-5-(methylsulfonamido)pyridin-2-yl)-1-methyl-1H-1,2,3-triazol-5-yl)carbamate]	323
Cc1nc(-c2nnn(C)c2NC(=O)O[C@H](C)c2cc(Br)cnc2F)ccc1NS(C)(=O)=O [Compound 125, (R)-1-(5-bromo-2-fluoropyridin-3-yl)ethyl (1-methyl-4-(6-methyl-5-(methylsulfonamido)pyridin-2-yl)-1H-1,2,3-triazol-5-yl)carbamate]	187
CCn1nnc(-c2ccc(NS(C)(=O)=O)c(C)n2)c1NC(=O)O[C@H](C)c1cccnc1Cl [Compound 157, (R)-1-(2-chloropyridin-3-yl)ethyl (1-ethyl-4-(6-methyl-5-(methylsulfonamido)pyridin-2-yl)-1H-1,2,3-triazol-5-yl)carbamate]	374

SMILES	EC50 [nM]
C[C@@H](OC(=O)Nc1c(-c2ccc(NS(C)(=O)=O)c(C(F)F)n2)nnn1C)c1ccccc1 [Compound 150, (R)-1-phenylethyl (4-(6-(difluoromethyl)-5-(methylsulfonamido)pyridin-2-yl)-1-methyl-1H-1,2,3-triazol-5-yl)carbamate]	1050
Cc1nc(-c2nnn(C)c2NC(=O)O[C@H](C)c2cccnc2F)ccc1NS(C)(=O)=O [Compound 128, (R)-1-(2-fluoropyridin-3-yl)ethyl (1-methyl-4-(6-methyl-5-(methylsulfonamido)pyridin-2-yl)-1H-1,2,3-triazol-5-yl)carbamate]	265
Cc1nc(-c2nnn(C)c2NC(=O)OC(C)c2cc(Cl)nnc2Cl)ccc1NS(C)(=O)=O (centres unmarked) [Compound 134, 1-(3,6-dichloropyridazin-4-yl)ethyl (1-methyl-4-(6-methyl-5-(methylsulfonamido)pyridin-2-yl)-1H-1,2,3-triazol-5-yl)carbamate]	1830
Cn1nnc(-c2ccc(NS(=O)(=O)CC#N)cn2)c1NC(=O)O[C@@H](c1ccccc1)C(F)F [Compound 13, (S)-2,2-difluoro-1-phenylethyl(4-(5-((cyanomethyl)sulfonamido)pyridin-2-yl)-1-methyl-1H-1,2,3-triazol-5-yl)carbamate]	71.4
Cc1nc(-c2nnn(C)c2NC(=O)O[C@H](C)c2cccc(Cl)c2)ccc1NS(C)(=O)=O [Compound 41, (R)-1-(3-chlorophenyl)ethyl (1-methyl-4-(6-methyl-5-(methylsulfonamido)pyridin-2-yl)-1H-1,2,3-triazol-5-yl)carbamate]	65
Cc1nc(-c2nnn(C)c2NC(=O)O[C@@H](c2ccccc2)C(F)(F)F)ccc1NS(C)(=O)=O [Compound 94, (S)-2,2,2-trifluoro-1-phenylethyl(1-methyl-4-(6-methyl-5-(methylsulfonamido)pyridin-2-yl)-1H-1,2,3-triazol-5-yl)carbamate]	38.6
Cc1nc(-c2nnn(C)c2NC(=O)O[C@H](C)c2cc(F)ccc2F)ccc1NS(C)(=O)=O [Compound 63, (R)-1-(2,5-difluorophenyl)ethyl (1-methyl-4-(6-methyl-5-(methylsulfonamido)pyridin-2-yl)-1H-1,2,3-triazol-5-yl)carbamate]	23.4
Cc1nc(-c2nnn(C)c2NC(=O)OC(C)c2cccnc2C)ccc1NS(C)(=O)=O (centres unmarked) [Compound 81, 1-(2-methylpyridin-3-yl)ethyl (1-methyl-4-(6-methyl-5-(methylsulfonamido)pyridin-2-yl)-1H-1,2,3-triazol-5-yl)carbamate]	876
C[C@@H](OC(=O)Nc1c(-c2cc(F)c(NS(C)(=O)=O)cn2)nnn1C)c1cccnc1Cl [Compound 158, (R)-1-(2-chloropyridin-3-yl)ethyl (4-(4-fluoro-5-(methylsulfonamido)pyridin-2-yl)-1-methyl-1H-1,2,3-triazol-5-yl)carbamate]	78.1
C[C@@H](OC(=O)Nc1c(-c2ccc(NS(C)(=O)=O)c(F)n2)nnn1C)c1cccnc1Cl [Compound 153, (R)-1-(2-chloropyridin-3-yl)ethyl (4-(6-fluoro-5-(methylsulfonamido)pyridin-2-yl)-1-methyl-1H-1,2,3-triazol-5-yl)carbamate]	207
Cc1nc(-c2nnn(C)c2NC(=O)OC(C)c2cncc(Cl)c2)ccc1NS(C)(=O)=O (centres unmarked) [Compound 83, 1-(5-chloropyridin-3-yl)ethyl (1-methyl-4-(6-methyl-5-(methylsulfonamido)pyridin-2-yl)-1H-1,2,3-triazol-5-yl)carbamate]	623
C[C@@H](OC(=O)Nc1c(-c2ccc(NS(C)(=O)=O)cn2)nnn1C)c1cccc(Cl)c1 [Compound 14, (R)-1-(3-chlorophenyl)ethyl (1-methyl-4-(5-(methylsulfonamido)pyridin-2-yl)-1H-1,2,3-triazol-5-yl)carbamate]	66.3
CCc1nc(-c2nnn(C)c2NC(=O)O[C@H](C)c2cc(F)cnc2Cl)ccc1NS(C)(=O)=O [Compound 147, (R)-1-(2-chloro-5-fluoropyridin-3-yl)ethyl (4-(6-ethyl-5-(methylsulfonamido)pyridin-2-yl)-1-methyl-1H-1,2,3-triazol-5-yl)carbamate]	127
CCCCC[C@@H](C)OC(=O)Nc1c(-c2ccc(NS(C)(=O)=O)c(C)n2)nnn1C [Compound 71, (R)-heptan-2-yl (1-methyl-4-(6-methyl-5-(methylsulfonamido)pyridin-2-yl)-1H-1,2,3-triazol-5-yl)carbamate]	1740
Cc1nc(-c2nnn(C)c2NC(=O)O[C@H](CF)c2ccccc2)c(F)cc1NS(C)(=O)=O [Compound 156, (S)-2-fluoro-1-phenylethyl (4-(3-fluoro-6-methyl-5-(methylsulfonamido)pyridin-2-yl)-1-methyl-1H-1,2,3-triazol-5-yl)carbamate]	162
C[C@@H](OC(=O)Nc1c(-c2ccc(NS(C)(=O)=O)c(C3CC3)n2)nnn1C)c1cccnc1Cl [Compound 149, (R)-1-(2-chloropyridin-3-yl)ethyl (4-(6-cyclopropyl-5-(methylsulfonamido)pyridin-2-yl)-1-methyl-1H-1,2,3-triazol-5-yl)carbamate]	304
